In US5616575A (priority 1995, dated 1997):
“Also recorded” adds a separate entry of the source.

Legend:
[1] = mice; cited from earlier work
[2] = fighting mice; cited from earlier work
[3] = rodents; cited from earlier work
[4] = humans; cited from earlier work
kappa-1 receptor [5] = test: Preliminary screening, binding at the kappa-1 receptor; conditions: in words
Method: To assess the potential addiction-interrupting effects of the newly synthesized iboganoids, compounds 7a,b,c were tested for binding at the 5-HT transporter and the […] and kappa-2 opiate receptors, molecular targets known to modulate mesolimbic dopaminergic function.

5-HT transporter = molecular target: T1, 5-HT transporter (Homo sapiens, UniProt P31645); test: Full competition experiments at the 5-HT transporter in human occipital cortex ([125I]RTI55); type: binding; conditions: for relative potency at the 5-HT transporter: comparison with ibogaine or noribogaine, in words; for IC50 / nH: human occipital cortex, mean ± S.D.; for IC50: 0.01 nM [125I]RTI55, 1 μM benztropine, 25° C., two determinations in triplicate; for nH: 0.01 nM [125I]RTI55
T1 construct: from tissue; host or cells: human occipital cortex membranes
Method: ^a Membranes isolated from human occipital cortex were incubated for
hr at 25° C., in the presence of 1 μM benztropine, with 0.01 nM
[^125 I]RTI55 and varying concentrations of the respective compounds.
Data analysis was performed with EBDA (DRUG). The data presented are the
mean ± S.D. of two independent determinations conducted in triplicate,
nonspecific binding was evaluated using 50 μm-cocaine. (See, J.K.
Staley et al., J. Neurochem., 62, 549 (1994)).

kappa-1 receptor [6] = molecular target: T2, kappa-1 receptor (Homo sapiens, UniProt P41145); test: Competition binding at the kappa-1 receptor of human insular cortex ([3H]U693593); conditions: for IC50: IC50, human insular cortex; for IC50 / nH: mean ± S.D.; for relative potency at the kappa-1 receptor: comparison with ibogaine, in words; for nH: human insular cortex
T2 construct: from tissue; host or cells: human insular cortex membranes
Method: Data analysis was performed with EBDA (DRUG); NS = nonspecific
The data presented are the mean ± S.D. of two independent

[7] = In vivo evaluation, behavior of rats after injection; conditions: for tremorigenic effect relative to ibogaine: comparison in words with ibogaine at 40 mg/kg; for tremors: 7a 100 μmol/kg; for tremors / locomotor activity and ataxia / behavioral symptoms: 7b comparable dose; for locomotor activity and ataxia / behavioral symptoms: injection, 7a and 7c 100 μmol/kg, 7d 150 μmol/kg
Method: Onset of symptoms was evident within 2 minutes, and the effects were most severe by 5 min. Signs of recovery became evident by 40 min post-injection and the animals appeared fully recovered after 60 min. Mild tremors were observed between 3 and 8 min post-injection.

NMDA receptor = NMDA receptor binding in human caudate (FIG. 3A); conditions: comparison in words
Method: The affinity of compounds 7a-c for the NMDA receptor was measured in human brain tissue employing the methodology of P. Popik et al., Psychopharmacol., 114, 672 (1994).

[8] = dogs and rabbits; cited from earlier work
[9] = cats; cited from earlier work
[10] = humans; cited from earlier work; remark: listed apart in the source
[11] = other animals; cited from earlier work
[12] = tested on: dopamine levels in the nucleus accumbens and striatum; conditions: nucleus accumbens and striatum (ibogaine: striatum); cited from earlier work
[13] = rats, 100 μmol/kg, post-injection

For `CN1CCc2c([nH]c3ccccc23)C(c2ccccc2)C1` (stereo not shown) [3-methyl-5-phenyl-1,2,3,4,5,6-hexahydroazepino[4,5-b]indole], which antidepressant activity [1] is on record?
The antidepressant activity was “displayed antidepressant activity”.

Which antidepressant activity [1] does the source give for `c1ccc(C2CNCCc3c2[nH]c2ccccc32)cc1` (stereo not shown) [5-phenyl-1,2,3,4,5,6-hexahydroazepino[4,5-b]indole] here?
Its antidepressant activity is “displayed antidepressant activity”.

Which aggressive behavior [2] does the source give for `Cn1c2c(c3ccccc31)CCNCC2` [6-methyl-1,2,3,4,5,6-hexahydroazepino[4,5-b]indole] here?
Its aggressive behavior is “antagonize aggressive behavior in fighting mice”.

What about the conditioned avoidance [3] of the same compound?
Its conditioned avoidance is “block conditioned avoidance”.

What about the “hypothermia and anorexigenic behavior” value [3] of the same compound?
The value was “induce hypothermia and anorexigenic behavior in rodents”.

What about the neuroleptic activity [4] of the same compound?
The neuroleptic activity was “did not exhibit neuroleptic activity in humans”.

Which “activity/affinity at the kappa-1 receptor” value (kappa-1 receptor [5]) does the source give for `CCN1CCc2c(sc3ccccc23)C(c2ccccc2)C1` (stereo not shown) [Compound 7a, 3-Ethyl-5-phenyl-1,2,3,4,5-pentahydroazepino[4,5-b]benzothiophene] here?
The value was “some activity”.

What about the “relative potency at the 5-HT transporter” value (5-HT transporter) of the same compound?
Its value is “two- to threefold more potent than ibogaine”.

And the IC50 (5-HT transporter)?
Its IC50 is 0.21 ± 0.01 µM.

And the nH (5-HT transporter)?
The nH was 1.0 ± 0.1.

What about the IC50 (kappa-1 receptor [6]; NS = 10 μM Naloxone) of the same compound?
The IC50 was 17.2 ± 3.18 µM.

And the IC50 (kappa-1 receptor [6]; NS, Computer-derived)?
Its IC50 is 10.1 ± 2.01 µM.

And the “relative potency at the kappa-1 receptor” value (kappa-1 receptor [6])?
Its value is “essentially equipotent with ibogaine”.

What about the nH (kappa-1 receptor [6]; NS = 10 μM Naloxone) of the same compound?
Its nH is 0.5 ± 0.0.

And the nH (kappa-1 receptor [6]; NS, Computer-derived)?
The nH was 1.3 ± 0.1.

And the “tremorigenic effect relative to ibogaine” value [7]?
Its value is “much less tremorigenic than ibogaine”.

And the breathing ([7]; rats, 100 μmol/kg)?
Its breathing is “Breathing appeared labored”.

What about the onset of symptoms ([7]; rats, 100 μmol/kg) of the same compound?
Its onset of symptoms is ≤ 2 min.

And the tail posture ([7]; rats, 100 μmol/kg)?
The tail posture was “the tail remained outstretched and limp”.

What about the “time at which effects were most severe” value ([7]; rats, 100 μmol/kg) of the same compound?
The value was ≤ 5 min.

And the “time at which signs of recovery became evident” value [7, 13]?
Its value is ≤ 40 min.

And the “time to full recovery” value [7, 13]?
The value was 60 min.

And the tremors ([7]; rats)?
Its tremors is “Mild tremors”.

And the “locomotor activity and ataxia / behavioral symptoms” value ([7]; rats)?
Its value is “severe reduction in locomotor activity and ataxia”.

Which results are given for `CCN1CCc2c(sc3ccccc23)C(c2cccc([N+](=O)[O-])c2)C1` (stereo not shown) [Compound 7b, 3-Ethyl-5-(3-nitrophenyl)-1,2,3,4,5-pentahydroazepino[4,5-b]benzothiophene]?
activity/affinity at the kappa-1 receptor (kappa-1 receptor [5]): poor affinity; relative potency at the 5-HT transporter (5-HT transporter): two- to threefold more potent than ibogaine; IC50 (5-HT transporter): 0.26 ± 0.06 µM; nH (5-HT transporter): 1.0 ± 0.2; tremorigenic effect relative to ibogaine [7]: much less tremorigenic than ibogaine; tremors ([7]; rats): no tremors were observed

With `CCN1CCc2c(sc3ccccc23)C(c2cccc(Br)c2)C1` (stereo not shown) [Compound 7c, 3-Ethyl-5-(3-bromophenyl)-1,2,3,4,5-pentahydroazepino[4,5-b]benzothiophene] as the compound, how does the “relative potency at the NMDA site” value (NMDA receptor) read?
Its value is “equipotent with ibogaine; also recorded: about fivefold more potent than 7a,b and noribogaine”.

What about the “activity/affinity at the kappa-1 receptor” value (kappa-1 receptor [5]) of the same compound?
Its value is “some activity”.

What about the “relative potency at the 5-HT transporter” value (5-HT transporter) of the same compound?
The value was “essentially equipotent with the naturally occurring compound”.

And the IC50 (5-HT transporter)?
The IC50 was 0.82 ± 0.16 µM.

What about the nH (5-HT transporter) of the same compound?
The nH was 1.2 ± 0.2.

What about the IC50 (kappa-1 receptor [6]; NS = 10 μM Naloxone) of the same compound?
Its IC50 is 117 ± 14.5 µM.

And the IC50 (kappa-1 receptor [6]; NS, Computer-derived)?
Its IC50 is 49 ± 0.96 µM.

And the “relative potency at the kappa-1 receptor” value (kappa-1 receptor [6])?
The value was “significantly less potent”.

What about the nH (kappa-1 receptor [6]; NS = 10 μM Naloxone) of the same compound?
The nH was 0.6 ± 0.1.

And the nH (kappa-1 receptor [6]; NS, Computer-derived)?
Its nH is 0.9 ± 0.1.

And the “locomotor activity and ataxia / behavioral symptoms” value ([7]; rats)?
The value was “No effects were observed”.

With `CC[C@H]1C[C@H]2C[C@H]3c4[nH]c5ccc(OC)cc5c4CCN(C2)[C@@H]13` [Ibogaine, ibogaine] as the compound, how does the “excitatory effects and local anesthetic activity” value [8] read?
Its value is “unusual excitatory effects and local anesthetic activity”.

And the psychostimulant effects [9]?
Its psychostimulant effects is “psychostimulant which caused phobia, ataxia and tremors in cats”.

And the “craving / drug-free status” value [10]?
Its value is “some addicts reported alleviation or cessation of craving, and a few remained drug-free for several years thereafter; also recorded: effective in reducing craving in some humans while others were unaffected”.

What about the “number of doses required for comparable effects” value [11] of the same compound?
The value was “up to three doses”.

And the dopamine levels [12]?
The dopamine levels was “reduce dopamine levels in the striatum”.

What does the source list for `CCC1CC2CC3c4[nH]c5ccc(O)cc5c4CCN(C2)C13` (stereo not shown) [Noribogaine, 12-hydroxyibogamine, reference compound]?
nH (5-HT transporter): 0.78 ± 0.06; IC50 (kappa-1 receptor [6]; 0.3 nM [3H]U693593, 1 hr, 25° C., NS definition not stated in line): 4.24 ± 0.28 µM; nH (kappa-1 receptor [6]; NS definition not stated in line): 1.1 ± 0.1

For `CC[C@H]1C[C@@H]2CN3CCc4c([nH]c5ccccc45)[C@](C(=O)OC)(C2)[C@H]13` [R-coronaridine], which dopamine levels [12] is on record?
The dopamine levels was “reduced dopamine levels in the nucleus accumbens and striatum”.

For `COC(=O)[C@H]1[C@@H](OC(=O)c2ccccc2)C[C@@H]2CC[C@H]1N2C` [cocaine, reference compound], which “reversal of the reduction in locomotor activity induced by 7b” value ([7]; rats, cocaine 10 mg/kg ip, injected 10 min after 7b) is on record?
The value was “reversed the reduction in locomotor activity induced by 7b”.

For R-ibogamine [R-ibogaine], which dopamine levels [12] is on record?
The dopamine levels was “reduced dopamine levels in the nucleus accumbens and striatum”.
